Test results published in paper PMC8192883, “Novel 1,2,4-oxadiazole derivatives as selective butyrylcholinesterase inhibitors: Design, synthesis and biological evaluation” (EXCLI Journal, 2021).

Test system: AChE
Assay: not given
Design: method as in earlier work
Details: Figure 2, known inhibitors, ref Wajid et al., 2019, Wu et al., de Andrade et al., Joubert and Kapp, 2020; cited from earlier work
For `CCCCCCCNC(=O)Oc1cccc(-c2coc3c4c(ccc3c2=O)OC(C)(C)C=C4)c1F` [compound 1], the IC50 is given as 297 µM.
In the case of `O=C(Nc1c(Cl)cccc1Cl)c1ccc(Br)cc1` [compound 2], the “AChE IC50” value is listed as “inactive”.
For `CC(=O)N[C@@H](Cn1cc(-c2ccccc2)nn1)C(=O)NCC1CCN(Cc2ccccc2)CC1` [compound 3], the IC50 is listed as over 10 µM.
In the case of `COc1cc(C2C3=C(CCCC3=O)NC3=C2C(=O)CCC3)ccc1OCc1ccc(F)cc1` [compound 4], the IC50 is given as 125 µM.

Test system: BuChE
Assay: not given
Details: Figure 2, known inhibitor, ref Wajid et al., 2019, Wu et al.; cited from earlier work
For `O=C(Nc1c(Cl)cccc1Cl)c1ccc(Br)cc1` [compound 2], the IC50 is listed as 0.8 µM.

Same assay, conditions: Figure 2, known inhibitors, ref Wajid et al., 2019, Wu et al., de Andrade et al., Joubert and Kapp, 2020; cited from earlier work
In the case of `CCCCCCCNC(=O)Oc1cccc(-c2coc3c4c(ccc3c2=O)OC(C)(C)C=C4)c1F` [compound 1], the IC50 is listed as 0.222 µM.
For `CC(=O)N[C@@H](Cn1cc(-c2ccccc2)nn1)C(=O)NCC1CCN(Cc2ccccc2)CC1` [compound 3], the IC50 is given as 0.00017 µM.
For `COc1cc(C2C3=C(CCCC3=O)NC3=C2C(=O)CCC3)ccc1OCc1ccc(F)cc1` [compound 4], the IC50 is listed as 0.098 µM.

Target: T1, AChE (E.C. 3.1.1.7, type V-S) (Electrophorus electricus, UniProt O42275)
T1 construct: purchased Sigma-Aldrich type V-S (catalogue number not given); host or cells: electric eel (natural source)
T1 sequence (O42275 24-633): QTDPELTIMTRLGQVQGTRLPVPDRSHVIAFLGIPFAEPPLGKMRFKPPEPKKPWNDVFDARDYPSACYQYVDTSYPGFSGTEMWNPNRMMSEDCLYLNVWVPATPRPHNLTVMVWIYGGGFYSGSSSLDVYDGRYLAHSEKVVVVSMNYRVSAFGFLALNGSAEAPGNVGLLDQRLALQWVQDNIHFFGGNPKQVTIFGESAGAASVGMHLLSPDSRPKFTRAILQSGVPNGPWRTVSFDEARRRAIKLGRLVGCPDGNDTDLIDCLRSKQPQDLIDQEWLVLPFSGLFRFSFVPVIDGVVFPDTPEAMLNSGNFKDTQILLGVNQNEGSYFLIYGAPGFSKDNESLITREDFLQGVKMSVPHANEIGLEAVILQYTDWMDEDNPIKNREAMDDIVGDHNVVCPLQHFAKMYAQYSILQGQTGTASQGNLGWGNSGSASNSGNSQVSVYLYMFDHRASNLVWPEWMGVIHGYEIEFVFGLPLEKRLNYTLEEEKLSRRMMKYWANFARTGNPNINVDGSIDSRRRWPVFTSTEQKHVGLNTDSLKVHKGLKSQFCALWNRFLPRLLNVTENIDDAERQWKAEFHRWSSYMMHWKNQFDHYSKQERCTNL
Assay: biochemical
Details: Ellman's method, electric eel AChE, mean ± SD
Method: (§1) The inhibitory activity of the designed compounds against BuChE and AChE was evaluated using Ellman's method. […] AChE (E.C. 3.1.1.7, type V-S, lyophilized powder, from the electric eel, 1000 units) and BuChE (E.C. 3.1.1.8, from equine serum), acetylthiocholine iodide (ATCI), butyrylthiocholine iodide (BTCI), and 5,5-dithiobis-(2-nitrobenzoic acid) (DTNB) were all acquired from Sigma-Aldrich. Potassium dihydrogen phosphate, dipotassium hydrogen phosphate, potassium hydroxide, and sodium hydrogen carbonate were obtained from Fluka. […] In this regard, each one of the wells included a 50 µL potassium phosphate buffer, 25 µL sample dissolved in 50 % methanol and 50 % DMSO, and 25 µL enzyme (the final concentration 0.22 U/mL in buffer). Thereafter, the wells were pre-incubated for 15 min at room temperature, and 125 µL DTNB (3 mM in buffer) was added to each plate. […] As well, the IC50 values were expressed as mean ± SD. The percentage of enzyme's inhibition was calculated by comparing with a blank sample (100 % activity). The described method was also used for the BuChE inhibition assay.
`c1ccc(CN2CCC(c3nc(-c4ccccc4)no3)CC2)cc1` [6a, 5-(1-benzylpiperidin-4-yl)-3-phenyl-1,2,4-oxadiazole] showed an IC50 of 35.5 µM.
In the case of `Cc1ccc(-c2noc(C3CCN(Cc4ccccc4)CC3)n2)cc1` [6b, 5-(1-benzylpiperidin-4-yl)-3-(p-tolyl)-1,2,4-oxadiazole], the IC50 is reported as over 100 µM.
Work on `Clc1ccc(-c2noc(C3CCN(Cc4ccccc4)CC3)n2)cc1` [6c, 5-(1-benzylpiperidin-4-yl)-3-(4-chlorophenyl)-1,2,4-oxadiazole] yielded an IC50 of over 100 µM.
In the case of `Fc1ccc(-c2noc(C3CCN(Cc4ccccc4)CC3)n2)cc1` [6d, 5-(1-benzylpiperidin-4-yl)-3-(4-fluorophenyl)-1,2,4-oxadiazole], the IC50 is reported as 21.16 ± 0.13 µM.
`Fc1ccc(CN2CCC(c3nc(-c4ccccc4)no3)CC2)cc1` [6e, 5-(1-(4-fluorobenzyl)piperidin-4-yl)-3-phenyl-1,2,4-oxadiazole] gave an IC50 of over 100 µM.
In the case of `Cc1ccc(-c2noc(C3CCN(Cc4ccc(F)cc4)CC3)n2)cc1` [6f, 5-(1-(4-fluorobenzyl)piperidin-4-yl)-3-(p-tolyl)-1,2,4-oxadiazole], the IC50 is reported as over 100 µM.
With `Fc1ccc(CN2CCC(c3nc(-c4ccc(Cl)cc4)no3)CC2)cc1` [6g, 3-(4-chlorophenyl)-5-(1-(4-fluorobenzyl)piperidin-4-yl)-1,2,4-oxadiazole] the IC50 was over 100 µM.
With `Fc1ccc(CN2CCC(c3nc(-c4ccc(F)cc4)no3)CC2)cc1` [6h, 5-(1-(4-fluorobenzyl)piperidin-4-yl)-3-(4-fluorophenyl)-1,2,4-oxadiazole] the IC50 was over 100 µM.
Work on `Clc1ccc(CN2CCC(c3nc(-c4ccccc4)no3)CC2)cc1` [6i, 5-(1-(4-chlorobenzyl)piperidin-4-yl)-3-phenyl-1,2,4-oxadiazole] yielded an IC50 of over 100 µM.
`Cc1ccc(-c2noc(C3CCN(Cc4ccc(Cl)cc4)CC3)n2)cc1` [6j, 5-(1-(4-chlorobenzyl)piperidin-4-yl)-3-(p-tolyl)-1,2,4-oxadiazole] gave an IC50 of over 100 µM.
Work on `Clc1ccc(CN2CCC(c3nc(-c4ccc(Cl)cc4)no3)CC2)cc1` [6k, 5-(1-(4-chlorobenzyl)piperidin-4-yl)-3-(4-chlorophenyl)-1,2,4-oxadiazole] yielded an IC50 of over 100 µM.
`Fc1ccc(-c2noc(C3CCN(Cc4ccc(Cl)cc4)CC3)n2)cc1` [6l, 5-(1-(4-chlorobenzyl)piperidin-4-yl)-3-(4-fluorophenyl)-1,2,4-oxadiazole] gave an IC50 of over 100 µM.
With `Clc1ccccc1CN1CCC(c2nc(-c3ccccc3)no2)CC1` [6m, 5-(1-(2-chlorobenzyl)piperidin-4-yl)-3-phenyl-1,2,4-oxadiazole] the IC50 was over 100 µM.
With `Cc1ccc(-c2noc(C3CCN(Cc4ccccc4Cl)CC3)n2)cc1` [6n, 5-(1-(2-chlorobenzyl)piperidin-4-yl)-3-(p-tolyl)-1,2,4-oxadiazole] the IC50 was over 100 µM.
`Clc1ccc(-c2noc(C3CCN(Cc4ccccc4Cl)CC3)n2)cc1` [6o, 5-(1-(2-chlorobenzyl)piperidin-4-yl)-3-(4-chlorophenyl)-1,2,4-oxadiazole] gave an IC50 of over 100 µM.
In the case of `Fc1ccc(-c2noc(C3CCN(Cc4ccccc4Cl)CC3)n2)cc1` [6p, 5-(1-(2-chlorobenzyl)piperidin-4-yl)-3-(4-fluorophenyl)-1,2,4-oxadiazole], the IC50 is reported as over 100 µM.
`Cc1ccc(CN2CCC(c3nc(-c4ccccc4)no3)CC2)cc1` [6q, 5-(1-(4-methylbenzyl)piperidin-4-yl)-3-phenyl-1,2,4-oxadiazole] gave an IC50 of over 100 µM.
`Cc1ccc(CN2CCC(c3nc(-c4ccc(C)cc4)no3)CC2)cc1` [6r, 5-(1-(4-methylbenzyl)piperidin-4-yl)-3-(p-tolyl)-1,2,4-oxadiazole] showed an IC50 of over 100 µM.
In the case of `Cc1ccc(CN2CCC(c3nc(-c4ccc(Cl)cc4)no3)CC2)cc1` [6s, 3-(4-chlorophenyl)-5-(1-(4-methylbenzyl)piperidin-4-yl)-1,2,4-oxadiazole], the IC50 is reported as over 100 µM.
In the case of `Cc1ccc(CN2CCC(c3nc(-c4ccc(F)cc4)no3)CC2)cc1` [6t, 3-(4-fluorophenyl)-5-(1-(4-methylbenzyl)piperidin-4-yl)-1,2,4-oxadiazole], the IC50 is reported as over 100 µM.

Target: T2, BuChE (E.C. 3.1.1.8) (Equus caballus, UniProt P81908)
T2 construct: purchased Sigma-Aldrich; host or cells: equine serum (natural source)
T2 sequence (P81908 whole entry): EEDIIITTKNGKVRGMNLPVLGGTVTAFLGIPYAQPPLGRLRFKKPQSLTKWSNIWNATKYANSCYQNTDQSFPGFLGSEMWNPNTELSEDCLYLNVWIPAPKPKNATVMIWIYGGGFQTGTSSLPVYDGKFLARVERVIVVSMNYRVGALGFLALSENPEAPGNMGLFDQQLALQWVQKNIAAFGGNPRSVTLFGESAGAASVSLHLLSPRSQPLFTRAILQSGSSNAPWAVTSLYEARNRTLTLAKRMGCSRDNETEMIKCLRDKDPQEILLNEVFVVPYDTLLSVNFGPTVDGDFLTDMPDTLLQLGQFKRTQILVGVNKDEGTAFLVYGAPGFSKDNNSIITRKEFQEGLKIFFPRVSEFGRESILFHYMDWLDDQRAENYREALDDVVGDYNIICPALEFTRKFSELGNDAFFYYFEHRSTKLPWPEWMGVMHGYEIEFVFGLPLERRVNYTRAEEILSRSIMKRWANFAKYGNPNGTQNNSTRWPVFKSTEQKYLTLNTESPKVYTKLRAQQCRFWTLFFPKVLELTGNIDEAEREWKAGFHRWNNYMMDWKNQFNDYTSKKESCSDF
Assay: biochemical
Details: Ellman's method, equine serum BuChE, mean ± SD
Method: as §1
Work on `c1ccc(CN2CCC(c3nc(-c4ccccc4)no3)CC2)cc1` [6a, 5-(1-benzylpiperidin-4-yl)-3-phenyl-1,2,4-oxadiazole] yielded an IC50 of 14.2 µM.
Compound `Cc1ccc(-c2noc(C3CCN(Cc4ccccc4)CC3)n2)cc1` [6b, 5-(1-benzylpiperidin-4-yl)-3-(p-tolyl)-1,2,4-oxadiazole] has an IC50 of 9.81 µM.
Work on `Clc1ccc(-c2noc(C3CCN(Cc4ccccc4)CC3)n2)cc1` [6c, 5-(1-benzylpiperidin-4-yl)-3-(4-chlorophenyl)-1,2,4-oxadiazole] yielded an IC50 of over 100 µM.
In the case of `Fc1ccc(-c2noc(C3CCN(Cc4ccccc4)CC3)n2)cc1` [6d, 5-(1-benzylpiperidin-4-yl)-3-(4-fluorophenyl)-1,2,4-oxadiazole], the IC50 is reported as 24.8 ± 0.97 µM.
With `Fc1ccc(CN2CCC(c3nc(-c4ccccc4)no3)CC2)cc1` [6e, 5-(1-(4-fluorobenzyl)piperidin-4-yl)-3-phenyl-1,2,4-oxadiazole] the IC50 was over 100 µM.
Compound `Cc1ccc(-c2noc(C3CCN(Cc4ccc(F)cc4)CC3)n2)cc1` [6f, 5-(1-(4-fluorobenzyl)piperidin-4-yl)-3-(p-tolyl)-1,2,4-oxadiazole] has an IC50 of 50.7 ± 0.06 µM.
`Fc1ccc(CN2CCC(c3nc(-c4ccc(Cl)cc4)no3)CC2)cc1` [6g, 3-(4-chlorophenyl)-5-(1-(4-fluorobenzyl)piperidin-4-yl)-1,2,4-oxadiazole] gave an IC50 of over 100 µM.
`Fc1ccc(CN2CCC(c3nc(-c4ccc(F)cc4)no3)CC2)cc1` [6h, 5-(1-(4-fluorobenzyl)piperidin-4-yl)-3-(4-fluorophenyl)-1,2,4-oxadiazole] showed an IC50 of over 100 µM.
Work on `Clc1ccc(CN2CCC(c3nc(-c4ccccc4)no3)CC2)cc1` [6i, 5-(1-(4-chlorobenzyl)piperidin-4-yl)-3-phenyl-1,2,4-oxadiazole] yielded an IC50 of over 100 µM.
Work on `Cc1ccc(-c2noc(C3CCN(Cc4ccc(Cl)cc4)CC3)n2)cc1` [6j, 5-(1-(4-chlorobenzyl)piperidin-4-yl)-3-(p-tolyl)-1,2,4-oxadiazole] yielded an IC50 of 50.3 ± 0.77 µM.
Compound `Clc1ccc(CN2CCC(c3nc(-c4ccc(Cl)cc4)no3)CC2)cc1` [6k, 5-(1-(4-chlorobenzyl)piperidin-4-yl)-3-(4-chlorophenyl)-1,2,4-oxadiazole] has an IC50 of over 100 µM.
For `Fc1ccc(-c2noc(C3CCN(Cc4ccc(Cl)cc4)CC3)n2)cc1` [6l, 5-(1-(4-chlorobenzyl)piperidin-4-yl)-3-(4-fluorophenyl)-1,2,4-oxadiazole], the IC50 was over 100 µM.
`Clc1ccccc1CN1CCC(c2nc(-c3ccccc3)no2)CC1` [6m, 5-(1-(2-chlorobenzyl)piperidin-4-yl)-3-phenyl-1,2,4-oxadiazole] gave an IC50 of over 100 µM.
For `Cc1ccc(-c2noc(C3CCN(Cc4ccccc4Cl)CC3)n2)cc1` [6n, 5-(1-(2-chlorobenzyl)piperidin-4-yl)-3-(p-tolyl)-1,2,4-oxadiazole], the IC50 was 5.07 µM.
`Clc1ccc(-c2noc(C3CCN(Cc4ccccc4Cl)CC3)n2)cc1` [6o, 5-(1-(2-chlorobenzyl)piperidin-4-yl)-3-(4-chlorophenyl)-1,2,4-oxadiazole] gave an IC50 of 81.2 ± 0.98 µM.
Compound `Fc1ccc(-c2noc(C3CCN(Cc4ccccc4Cl)CC3)n2)cc1` [6p, 5-(1-(2-chlorobenzyl)piperidin-4-yl)-3-(4-fluorophenyl)-1,2,4-oxadiazole] has an IC50 of over 100 µM.
Compound `Cc1ccc(CN2CCC(c3nc(-c4ccccc4)no3)CC2)cc1` [6q, 5-(1-(4-methylbenzyl)piperidin-4-yl)-3-phenyl-1,2,4-oxadiazole] has an IC50 of over 100 µM.
With `Cc1ccc(CN2CCC(c3nc(-c4ccc(C)cc4)no3)CC2)cc1` [6r, 5-(1-(4-methylbenzyl)piperidin-4-yl)-3-(p-tolyl)-1,2,4-oxadiazole] the IC50 was 62.8 ± 0.65 µM.
Work on `Cc1ccc(CN2CCC(c3nc(-c4ccc(Cl)cc4)no3)CC2)cc1` [6s, 3-(4-chlorophenyl)-5-(1-(4-methylbenzyl)piperidin-4-yl)-1,2,4-oxadiazole] yielded an IC50 of over 100 µM.
With `Cc1ccc(CN2CCC(c3nc(-c4ccc(F)cc4)no3)CC2)cc1` [6t, 3-(4-fluorophenyl)-5-(1-(4-methylbenzyl)piperidin-4-yl)-1,2,4-oxadiazole] the IC50 was over 100 µM.

Same assay, conditions: SI ratio; values match IC50 AChE / IC50 BuChE
For `c1ccc(CN2CCC(c3nc(-c4ccccc4)no3)CC2)cc1` [6a, 5-(1-benzylpiperidin-4-yl)-3-phenyl-1,2,4-oxadiazole], the “SI (selectivity towards BuChE)” value was 2.49.
For `Cc1ccc(-c2noc(C3CCN(Cc4ccccc4)CC3)n2)cc1` [6b, 5-(1-benzylpiperidin-4-yl)-3-(p-tolyl)-1,2,4-oxadiazole], the “SI (selectivity towards BuChE)” value was over 10.19.
In the case of `Fc1ccc(-c2noc(C3CCN(Cc4ccccc4)CC3)n2)cc1` [6d, 5-(1-benzylpiperidin-4-yl)-3-(4-fluorophenyl)-1,2,4-oxadiazole], the “SI (selectivity towards BuChE)” value is reported as 0.85.
In the case of `Cc1ccc(-c2noc(C3CCN(Cc4ccc(F)cc4)CC3)n2)cc1` [6f, 5-(1-(4-fluorobenzyl)piperidin-4-yl)-3-(p-tolyl)-1,2,4-oxadiazole], the “SI (selectivity towards BuChE)” value is reported as over 1.97.
In the case of `Cc1ccc(-c2noc(C3CCN(Cc4ccc(Cl)cc4)CC3)n2)cc1` [6j, 5-(1-(4-chlorobenzyl)piperidin-4-yl)-3-(p-tolyl)-1,2,4-oxadiazole], the “SI (selectivity towards BuChE)” value is reported as over 1.98.
For `Cc1ccc(-c2noc(C3CCN(Cc4ccccc4Cl)CC3)n2)cc1` [6n, 5-(1-(2-chlorobenzyl)piperidin-4-yl)-3-(p-tolyl)-1,2,4-oxadiazole], the “SI (selectivity towards BuChE)” value was “greater than 19.72”.
With `Clc1ccc(-c2noc(C3CCN(Cc4ccccc4Cl)CC3)n2)cc1` [6o, 5-(1-(2-chlorobenzyl)piperidin-4-yl)-3-(4-chlorophenyl)-1,2,4-oxadiazole] the “SI (selectivity towards BuChE)” value was over 1.23.
With `Cc1ccc(CN2CCC(c3nc(-c4ccc(C)cc4)no3)CC2)cc1` [6r, 5-(1-(4-methylbenzyl)piperidin-4-yl)-3-(p-tolyl)-1,2,4-oxadiazole] the “SI (selectivity towards BuChE)” value was over 1.59.
